# Test results reported in the NIST ThermoML archive (doi:10.1016/j.jct.2016.02.009).
# Numbers after ± are expanded uncertainties.
# Assays:
# [1] = for molar entropy: 101.33 kPa, Small (less than 1 g) adiabatic calorimetry; for vapor or sublimation pressure: Calculated from knudsen effusion weight loss; for Triple point temperature: Adiabatic calorimetry
# [2] = Molar enthalpy of transition or fusion; details: Crystal 1; Adiabatic calorimetry
smiles,measurement,setting,value
CCCCCCCCCCCCCCCCn1cc[n+](C)c1.O=S(=O)([N-]S(=O)(=O)C(F)(F)F)C(F)(F)F,molar entropy,"[1]; 5 K, Crystal 2",1.23 ± 0.06 J/K/mol
same,molar entropy,"[1]; 10 K, Crystal 2",7.81 ± 0.26 J/K/mol
same,molar entropy,"[1]; 15 K, Crystal 2",19.15 ± 0.51 J/K/mol
same,molar entropy,"[1]; 20 K, Crystal 2",33.76 ± 0.72 J/K/mol
same,molar entropy,"[1]; 25 K, Crystal 2",50.4 ± 0.87 J/K/mol
same,molar entropy,"[1]; 30 K, Crystal 2",68.27 ± 0.9 J/K/mol
same,molar entropy,"[1]; 35 K, Crystal 2",86.83 ± 1 J/K/mol
same,molar entropy,"[1]; 40 K, Crystal 2",105.7 ± 1.2 J/K/mol
same,molar entropy,"[1]; 45 K, Crystal 2",124.7 ± 1.3 J/K/mol
same,molar entropy,"[1]; 50 K, Crystal 2",143.7 ± 1.5 J/K/mol
same,molar entropy,"[1]; 60 K, Crystal 2",181.5 ± 1.8 J/K/mol
same,molar entropy,"[1]; 70 K, Crystal 2",218.5 ± 2.1 J/K/mol
same,molar entropy,"[1]; 80 K, Crystal 2",254.6 ± 2.4 J/K/mol
same,molar entropy,"[1]; 90 K, Crystal 2",289.6 ± 2.5 J/K/mol
same,molar entropy,"[1]; 100 K, Crystal 2",323.6 ± 2.8 J/K/mol
same,molar entropy,"[1]; 110 K, Crystal 2",356.7 ± 3.1 J/K/mol
same,molar entropy,"[1]; 120 K, Crystal 2",388.9 ± 3.3 J/K/mol
same,molar entropy,"[1]; 130 K, Crystal 2",420.2 ± 3.5 J/K/mol
same,molar entropy,"[1]; 140 K, Crystal 2",450.7 ± 3.7 J/K/mol
same,molar entropy,"[1]; 150 K, Crystal 2",480.4 ± 4 J/K/mol
same,molar entropy,"[1]; 160 K, Crystal 2",509.6 ± 4.2 J/K/mol
same,molar entropy,"[1]; 170 K, Crystal 2",538.1 ± 4.4 J/K/mol
same,molar entropy,"[1]; 180 K, Crystal 2",566.1 ± 4.6 J/K/mol
same,molar entropy,"[1]; 190 K, Crystal 2",593.7 ± 4.8 J/K/mol
same,molar entropy,"[1]; 200 K, Crystal 2",621 ± 5 J/K/mol
same,molar entropy,"[1]; 210 K, Crystal 2",647.9 ± 5.1 J/K/mol
same,molar entropy,"[1]; 220 K, Crystal 2",674.5 ± 5.3 J/K/mol
same,molar entropy,"[1]; 230 K, Crystal 2",701.1 ± 5.5 J/K/mol
same,molar entropy,"[1]; 240 K, Crystal 2",727.5 ± 5.7 J/K/mol
same,molar entropy,"[1]; 250 K, Crystal 2",754.1 ± 6 J/K/mol
same,molar entropy,"[1]; 260 K, Crystal 2",780.8 ± 6.2 J/K/mol
same,molar entropy,"[1]; 270 K, Crystal 2",808.1 ± 6.4 J/K/mol
same,molar entropy,"[1]; 280 K, Crystal 2",836.2 ± 6.6 J/K/mol
same,molar entropy,"[1]; 290 K, Crystal 2",866.1 ± 6.8 J/K/mol
same,molar entropy,"[1]; 298.15 K, Crystal 2",893.4 ± 7 J/K/mol
same,molar entropy,"[1]; 300 K, Crystal 2",900.3 ± 7 J/K/mol
same,molar entropy,"[1]; 305.5 K, Crystal 1",922.5 ± 7.2 J/K/mol
same,molar entropy,"[1]; 305.5 K, Crystal 2",922.5 ± 7.2 J/K/mol
same,molar entropy,"[1]; 310 K, Crystal 1",941 ± 7.3 J/K/mol
same,molar entropy,"[1]; 319.25 K, Crystal 1",971.3 ± 7.5 J/K/mol
same,molar entropy,"[1]; 319.25 K, Liquid",1132 ± 9 J/K/mol
same,molar entropy,"[1]; 320 K, Liquid",1134 ± 9 J/K/mol
same,molar entropy,"[1]; 330 K, Liquid",1164 ± 9 J/K/mol
same,molar entropy,"[1]; 340 K, Liquid",1194 ± 9 J/K/mol
same,molar entropy,"[1]; 350 K, Liquid",1222 ± 9 J/K/mol
same,molar entropy,"[1]; 360 K, Liquid",1251 ± 9 J/K/mol
same,molar entropy,"[1]; 370 K, Liquid",1279 ± 9 J/K/mol
same,vapor or sublimation pressure,"[1]; 508.07 K, Liquid",3.21e-05 ± 2e-06 kPa
same,vapor or sublimation pressure,"[1]; 513.07 K, Liquid",4.5e-05 ± 2.8e-06 kPa
same,vapor or sublimation pressure,"[1]; 518.07 K, Liquid",6.31e-05 ± 3.9e-06 kPa
same,vapor or sublimation pressure,"[1]; 523.07 K, Liquid",8.75e-05 ± 5.4e-06 kPa
same,vapor or sublimation pressure,"[1]; 528.06 K, Liquid",0.0001197 ± 7.3e-06 kPa
same,vapor or sublimation pressure,"[1]; 533.07 K, Liquid",0.0001644 ± 1e-05 kPa
same,Triple point temperature,[1]; Crystal 1,319.25 ± 0.05 K
same,Triple point temperature,[1]; Crystal 2,305.5 ± 0.5 K
same,Molar enthalpy of transition or fusion,[2],51.28 ± 0.24 kJ/mol
CCCCCCCCCCn1cc[n+](C)c1.O=S(=O)([N-]S(=O)(=O)C(F)(F)F)C(F)(F)F,molar entropy,"[1]; 5 K, Crystal 2",1.18 ± 0.06 J/K/mol
same,molar entropy,"[1]; 10 K, Crystal 2",7.33 ± 0.25 J/K/mol
same,molar entropy,"[1]; 15 K, Crystal 2",17.93 ± 0.49 J/K/mol
same,molar entropy,"[1]; 20 K, Crystal 2",31.5 ± 0.68 J/K/mol
same,molar entropy,"[1]; 25 K, Crystal 2",46.8 ± 0.81 J/K/mol
same,molar entropy,"[1]; 30 K, Crystal 2",63.01 ± 0.83 J/K/mol
same,molar entropy,"[1]; 35 K, Crystal 2",79.61 ± 0.97 J/K/mol
same,molar entropy,"[1]; 40 K, Crystal 2",96.26 ± 1.1 J/K/mol
same,molar entropy,"[1]; 50 K, Crystal 2",129.2 ± 1.3 J/K/mol
same,molar entropy,"[1]; 60 K, Crystal 2",161.4 ± 1.7 J/K/mol
same,molar entropy,"[1]; 70 K, Crystal 2",192.7 ± 1.9 J/K/mol
same,molar entropy,"[1]; 80 K, Crystal 2",222.8 ± 2.1 J/K/mol
same,molar entropy,"[1]; 90 K, Crystal 2",252 ± 2.2 J/K/mol
same,molar entropy,"[1]; 100 K, Crystal 2",280.3 ± 2.4 J/K/mol
same,molar entropy,"[1]; 110 K, Crystal 2",307.8 ± 2.7 J/K/mol
same,molar entropy,"[1]; 120 K, Crystal 2",334.4 ± 2.9 J/K/mol
same,molar entropy,"[1]; 130 K, Crystal 2",360.4 ± 3.1 J/K/mol
same,molar entropy,"[1]; 140 K, Crystal 2",385.8 ± 3.3 J/K/mol
same,molar entropy,"[1]; 150 K, Crystal 2",410.5 ± 3.5 J/K/mol
same,molar entropy,"[1]; 160 K, Crystal 2",434.8 ± 3.6 J/K/mol
same,molar entropy,"[1]; 170 K, Crystal 2",458.6 ± 3.8 J/K/mol
same,molar entropy,"[1]; 180 K, Crystal 2",482.1 ± 4 J/K/mol
same,molar entropy,"[1]; 190 K, Crystal 2",505.4 ± 4.1 J/K/mol
same,molar entropy,"[1]; 200 K, Crystal 2",528.6 ± 4.2 J/K/mol
same,molar entropy,"[1]; 210 K, Crystal 2",551.8 ± 4.4 J/K/mol
same,molar entropy,"[1]; 220 K, Crystal 2",575.2 ± 4.6 J/K/mol
same,molar entropy,"[1]; 230 K, Crystal 2",599.3 ± 4.8 J/K/mol
same,molar entropy,"[1]; 240 K, Crystal 2",625.2 ± 5 J/K/mol
same,molar entropy,"[1]; 249 K, Crystal 1",653.6 ± 5.2 J/K/mol
same,molar entropy,"[1]; 249 K, Crystal 2",653.6 ± 5.2 J/K/mol
same,molar entropy,"[1]; 252 K, Crystal 1",662.4 ± 5.3 J/K/mol
same,molar entropy,"[1]; 260 K, Crystal 1",682.3 ± 5.5 J/K/mol
same,molar entropy,"[1]; 270 K, Crystal 1",707.5 ± 5.7 J/K/mol
same,molar entropy,"[1]; 277.33 K, Crystal 1",726.3 ± 5.7 J/K/mol
same,molar entropy,"[1]; 277.33 K, Liquid",829.8 ± 6.4 J/K/mol
same,molar entropy,"[1]; 280 K, Liquid",836.9 ± 6.6 J/K/mol
same,molar entropy,"[1]; 290 K, Liquid",863.1 ± 6.8 J/K/mol
same,molar entropy,"[1]; 298.15 K, Liquid",883.9 ± 6.9 J/K/mol
same,molar entropy,"[1]; 300 K, Liquid",888.6 ± 7 J/K/mol
same,molar entropy,"[1]; 310 K, Liquid",913.5 ± 7.1 J/K/mol
same,molar entropy,"[1]; 320 K, Liquid",937.9 ± 7.3 J/K/mol
same,molar entropy,"[1]; 330 K, Liquid",961.7 ± 7.5 J/K/mol
same,molar entropy,"[1]; 340 K, Liquid",985.1 ± 7.7 J/K/mol
same,molar entropy,"[1]; 350 K, Liquid",1008 ± 8 J/K/mol
same,molar entropy,"[1]; 360 K, Liquid",1031 ± 8 J/K/mol
same,molar entropy,"[1]; 370 K, Liquid",1053 ± 8 J/K/mol
same,Triple point temperature,[1]; Crystal 1,277.33 ± 0.05 K
same,Triple point temperature,[1]; Crystal 2,249 ± 1 K
same,Molar enthalpy of transition or fusion,[2],28.67 ± 0.13 kJ/mol
CCCCCCCCCCCCCCn1cc[n+](C)c1.O=S(=O)([N-]S(=O)(=O)C(F)(F)F)C(F)(F)F,molar entropy,"[1]; 5 K, Crystal 2",1.17 ± 0.06 J/K/mol
same,molar entropy,"[1]; 10 K, Crystal 2",7.53 ± 0.25 J/K/mol
same,molar entropy,"[1]; 15 K, Crystal 2",18.57 ± 0.5 J/K/mol
same,molar entropy,"[1]; 20 K, Crystal 2",32.77 ± 0.7 J/K/mol
same,molar entropy,"[1]; 25 K, Crystal 2",48.94 ± 0.84 J/K/mol
same,molar entropy,"[1]; 30 K, Crystal 2",66.22 ± 0.87 J/K/mol
same,molar entropy,"[1]; 35 K, Crystal 2",84.11 ± 1 J/K/mol
same,molar entropy,"[1]; 40 K, Crystal 2",102.3 ± 1.1 J/K/mol
same,molar entropy,"[1]; 45 K, Crystal 2",120.5 ± 1.3 J/K/mol
same,molar entropy,"[1]; 50 K, Crystal 2",138.7 ± 1.5 J/K/mol
same,molar entropy,"[1]; 60 K, Crystal 2",174.7 ± 1.7 J/K/mol
same,molar entropy,"[1]; 70 K, Crystal 2",209.8 ± 2.1 J/K/mol
same,molar entropy,"[1]; 80 K, Crystal 2",244 ± 2.3 J/K/mol
same,molar entropy,"[1]; 90 K, Crystal 2",277.1 ± 2.4 J/K/mol
same,molar entropy,"[1]; 100 K, Crystal 2",309.3 ± 2.7 J/K/mol
same,molar entropy,"[1]; 110 K, Crystal 2",340.5 ± 2.9 J/K/mol
same,molar entropy,"[1]; 120 K, Crystal 2",370.8 ± 3.1 J/K/mol
same,molar entropy,"[1]; 130 K, Crystal 2",400.3 ± 3.3 J/K/mol
same,molar entropy,"[1]; 140 K, Crystal 2",429.1 ± 3.5 J/K/mol
same,molar entropy,"[1]; 150 K, Crystal 2",457.2 ± 3.8 J/K/mol
same,molar entropy,"[1]; 160 K, Crystal 2",484.6 ± 4 J/K/mol
same,molar entropy,"[1]; 170 K, Crystal 2",511.6 ± 4.2 J/K/mol
same,molar entropy,"[1]; 180 K, Crystal 2",538.1 ± 4.4 J/K/mol
same,molar entropy,"[1]; 190 K, Crystal 2",564.2 ± 4.6 J/K/mol
same,molar entropy,"[1]; 200 K, Crystal 2",589.9 ± 4.8 J/K/mol
same,molar entropy,"[1]; 210 K, Crystal 2",615.5 ± 4.9 J/K/mol
same,molar entropy,"[1]; 220 K, Crystal 2",640.8 ± 5.1 J/K/mol
same,molar entropy,"[1]; 230 K, Crystal 2",666 ± 5.3 J/K/mol
same,molar entropy,"[1]; 240 K, Crystal 2",691.3 ± 5.5 J/K/mol
same,molar entropy,"[1]; 250 K, Crystal 2",716.7 ± 5.7 J/K/mol
same,molar entropy,"[1]; 260 K, Crystal 2",742.5 ± 5.9 J/K/mol
same,molar entropy,"[1]; 270 K, Crystal 2",769.1 ± 6 J/K/mol
same,molar entropy,"[1]; 280 K, Crystal 2",797.3 ± 6.2 J/K/mol
same,molar entropy,"[1]; 290 K, Crystal 2",829.7 ± 6.4 J/K/mol
same,molar entropy,"[1]; 295.5 K, Crystal 1",850.6 ± 6.6 J/K/mol
same,molar entropy,"[1]; 295.5 K, Crystal 2",850.6 ± 6.6 J/K/mol
same,molar entropy,"[1]; 298.15 K, Crystal 1",860.5 ± 6.8 J/K/mol
same,molar entropy,"[1]; 300 K, Crystal 1",866 ± 6.8 J/K/mol
same,molar entropy,"[1]; 308.77 K, Crystal 1",891.2 ± 7 J/K/mol
same,molar entropy,"[1]; 308.77 K, Liquid",1037 ± 8 J/K/mol
same,molar entropy,"[1]; 310 K, Liquid",1041 ± 8 J/K/mol
same,molar entropy,"[1]; 320 K, Liquid",1070 ± 9 J/K/mol
same,molar entropy,"[1]; 330 K, Liquid",1098 ± 9 J/K/mol
same,molar entropy,"[1]; 340 K, Liquid",1125 ± 9 J/K/mol
same,molar entropy,"[1]; 350 K, Liquid",1152 ± 9 J/K/mol
same,molar entropy,"[1]; 360 K, Liquid",1179 ± 9 J/K/mol
same,molar entropy,"[1]; 370 K, Liquid",1205 ± 9 J/K/mol
same,vapor or sublimation pressure,"[1]; 498.07 K, Liquid",2.76e-05 ± 1.7e-06 kPa
same,vapor or sublimation pressure,"[1]; 503.06 K, Liquid",3.85e-05 ± 2.4e-06 kPa
same,vapor or sublimation pressure,"[1]; 508.05 K, Liquid",5.39e-05 ± 3.3e-06 kPa
same,vapor or sublimation pressure,"[1]; 513.05 K, Liquid",7.45e-05 ± 4.6e-06 kPa
same,vapor or sublimation pressure,"[1]; 518.04 K, Liquid",0.0001018 ± 6.2e-06 kPa
same,vapor or sublimation pressure,"[1]; 523.05 K, Liquid",0.0001397 ± 8.6e-06 kPa
same,vapor or sublimation pressure,"[1]; 528.05 K, Liquid",0.0001898 ± 1.2e-05 kPa
same,Triple point temperature,[1]; Crystal 1,308.77 ± 0.05 K
same,Triple point temperature,[1]; Crystal 2,295.5 ± 0.4 K
same,Molar enthalpy of transition or fusion,[2],45.18 ± 0.1 kJ/mol
